The NIST ThermoML archive (doi:10.1016/j.fluid.2007.06.007)

Assay: excess molar enthalpy (molar enthalpy of mixing); xn = mol fraction of the nth substance listed
Settings: 101 kPa, Liquid, Calvet calorimetry

CCCCn1cc[n+](C)c1.F[P-](F)(F)(F)(F)F [1-butyl-3-methylimidazolium hexafluorophosphate] + CCCCO
Settings	excess molar enthalpy [kcal/mol]
288.15 K, x2 = 0.000787	0.00199
288.15 K, x2 = 0.001572	0.00391
288.15 K, x2 = 0.002356	0.00586
288.15 K, x2 = 0.003139	0.00774
288.15 K, x2 = 0.003921	0.00965
288.15 K, x2 = 0.004701	0.0115
288.15 K, x2 = 0.00548	0.0134
288.15 K, x2 = 0.006258	0.0153
298.15 K, x2 = 0.000761	0.00205
298.15 K, x2 = 0.00152	0.00402
298.15 K, x2 = 0.002279	0.00604
298.15 K, x2 = 0.003036	0.00798
298.15 K, x2 = 0.003792	0.00989
298.15 K, x2 = 0.004547	0.0117
298.15 K, x2 = 0.005301	0.0136
298.15 K, x2 = 0.006053	0.0154
308.15 K, x2 = 0.000768	0.00202
308.15 K, x2 = 0.001541	0.00387
308.15 K, x2 = 0.002312	0.00562
308.15 K, x2 = 0.003086	0.00739
308.15 K, x2 = 0.003861	0.0092
308.15 K, x2 = 0.004632	0.011
308.15 K, x2 = 0.005405	0.0129
308.15 K, x2 = 0.006177	0.0147
318.15 K, x2 = 0.000821	0.00228
318.15 K, x2 = 0.001647	0.00451
318.15 K, x2 = 0.00247	0.00669
318.15 K, x2 = 0.003297	0.00863
318.15 K, x2 = 0.004125	0.0107
318.15 K, x2 = 0.004949	0.0128
318.15 K, x2 = 0.005774	0.0148
318.15 K, x2 = 0.006599	0.0167
328.15 K, x2 = 0.000874	0.00273
328.15 K, x2 = 0.001747	0.00529
328.15 K, x2 = 0.002618	0.00766
328.15 K, x2 = 0.003488	0.0101
328.15 K, x2 = 0.004357	0.0126
328.15 K, x2 = 0.005223	0.015
328.15 K, x2 = 0.006089	0.0174
328.15 K, x2 = 0.006952	0.0198

CCCCn1cc[n+](C)c1.F[P-](F)(F)(F)(F)F [1-butyl-3-methylimidazolium hexafluorophosphate] + CC(C)O
Settings	excess molar enthalpy [kcal/mol]
288.15 K, x2 = 0.000943	0.00213
288.15 K, x2 = 0.001871	0.00426
288.15 K, x2 = 0.002806	0.00637
288.15 K, x2 = 0.003745	0.00844
288.15 K, x2 = 0.004685	0.0106
288.15 K, x2 = 0.00562	0.0126
288.15 K, x2 = 0.006556	0.0146
288.15 K, x2 = 0.007492	0.0167
298.15 K, x2 = 0.000909	0.00209
298.15 K, x2 = 0.001826	0.00417
298.15 K, x2 = 0.002738	0.0062
298.15 K, x2 = 0.003654	0.00821
298.15 K, x2 = 0.004571	0.0102
298.15 K, x2 = 0.005484	0.0123
298.15 K, x2 = 0.006398	0.0143
298.15 K, x2 = 0.007311	0.0163
308.15 K, x2 = 0.000919	0.00219
308.15 K, x2 = 0.001837	0.00421
308.15 K, x2 = 0.002753	0.00609
308.15 K, x2 = 0.003667	0.00793
308.15 K, x2 = 0.004579	0.00975
308.15 K, x2 = 0.00549	0.0115
308.15 K, x2 = 0.006399	0.0132
308.15 K, x2 = 0.007307	0.0149
318.15 K, x2 = 0.000994	0.00241
318.15 K, x2 = 0.00201	0.00473
318.15 K, x2 = 0.003012	0.00688
318.15 K, x2 = 0.004011	0.00907
318.15 K, x2 = 0.005009	0.0111
318.15 K, x2 = 0.006005	0.0133
318.15 K, x2 = 0.006999	0.0154
318.15 K, x2 = 0.007991	0.0172

CCO [ethanol] + O
298.15 K
Settings	excess molar enthalpy [kcal/mol]
x1 = 0.000102	-0.000249
x1 = 0.000206	-0.000497
x1 = 0.000308	-0.000746
x1 = 0.000412	-0.000992
x1 = 0.000516	-0.00124
x1 = 0.000619	-0.00148
x1 = 0.000723	-0.00173
x1 = 0.000827	-0.00197
x1 = 0.000931	-0.00222
x1 = 0.001034	-0.00246
x1 = 0.001138	-0.00271
x1 = 0.001241	-0.00295
x1 = 0.001345	-0.00319
x1 = 0.001448	-0.00343
x1 = 0.001551	-0.00367
x2 = 0.001021	-0.000507
x2 = 0.00205	-0.00101
x2 = 0.003074	-0.00151
x2 = 0.004102	-0.002
x2 = 0.00513	-0.00248
x2 = 0.006155	-0.00296
x2 = 0.007179	-0.00343
x2 = 0.008203	-0.0039
x2 = 0.009225	-0.00437
x2 = 0.01024	-0.00484
x2 = 0.01125	-0.00529
x2 = 0.01226	-0.00575
x2 = 0.01328	-0.00619
x2 = 0.01428	-0.00664
x2 = 0.01529	-0.00708
